Data published in patent US20230104936A1, “TRPML MODULATORS” (Casma Therapeutics, Inc., priority 2019, published 2023).

Test system: TFEB
Test: TFEB nuclear translocation assay, HeLa wt cells
Assay type: cell-based
Details: 2 hrs compound treatment, Table 1 does not say HeLa wt or TRPML1 KO
How it was run: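 Using 20× epifluorescence of fixed, anti-TFEB-stained HeLa wt cells treated 2 hrs with compound, nuclear versus perinuclear ring intensity was quantified over four fields per well, yielding AC50 values.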

SMILES: Cn1cc(S(=O)(=O)Nc2ccccc2N2CCN(c3ccc(Cl)cc3F)CC2)cn1 [Compound A-6, N-{2-[4-(4-chloro-2-fluorophenyl)piperazin-1-yl]phenyl}-1-methyl-1H-pyrazole-4-sulfonamide]
- AC50 (Homo sapiens, HeLa, 2 h): ≥ 10 µM

SMILES: COc1ccc(N2CCOCC2)c(NS(=O)(=O)Cc2ccc3c(c2)COCC3)c1 [Compound A-609, 1-(3,4-dihydro-1H-2-benzopyran-7-yl)-N-[5-methoxy-2-(morpholin-4-yl)phenyl]methanesulfonamide]
- AC50 (Homo sapiens, HeLa, 2 h): 8.01 to 9.99 µM

SMILES: CN1CC2(CCN(c3ccccc3NS(=O)(=O)c3ccc(S(=O)(=O)N(C)C)cc3)CC2)c2ccncc21 [Compound A-412, N1,N1-dimethyl-N4-(2-{1′-methyl-1′,2′-dihydrospiro[piperidine-4,3′-pyrrolo[2,3-c]pyridin]-1-yl}phenyl)benzene-1,4-disulfonamide]
- AC50 (Homo sapiens, HeLa, 2 h): ≤ 2 µM

SMILES: CN(C)S(=O)(=O)c1ccc(S(=O)(=O)N2CCC(N3CCC(c4ccc(Cl)cc4F)CC3)C2=O)cc1 (stereo not drawn) [Compound A-71, 4-((3-(4-(4-chloro-2-fluorophenyl)piperidin-1-yl)-2-oxopyrrolidin-1-yl)sulfonyl)-N,N-dimethylbenzenesulfonamide]
- AC50 (Homo sapiens, HeLa, 2 h): ≥ 10 µM

SMILES: CC1(C)Cc2cc(S(=O)(=O)Nc3ccccc3N3CCC4(CCOCC4)CC3)ccc2O1 [Compound A-654, 2,2-dimethyl-N-(2-{3-oxa-9-azaspiro[5.5]undecan-9-yl}phenyl)-2,3-dihydro-1-benzofuran-5-sulfonamide]
- AC50 (Homo sapiens, HeLa, 2 h): ≤ 2 µM

SMILES: CC(C)CN1CCN(c2ccccc2C(C)S(=O)(=O)c2ccc(S(=O)(=O)N(C)C)cc2)CC1 (stereo not drawn) [Compound A-604, N,N-dimethyl-4-(1-{2-[4-(2-methylpropyl)piperazin-1-yl]phenyl}ethanesulfonyl)benzene-1-sulfonamide]
- AC50 (Homo sapiens, HeLa, 2 h): ≤ 2 µM

SMILES: CN(C)S(=O)(=O)c1ccc(S(=O)(=O)Nc2cccc(F)c2N2CCC3(CCNC3=O)CC2)cc1 [Compound A-792, N4-(3-fluoro-2-{1-oxo-2,8-diazaspiro[4.5]decan-8-yl}phenyl)-N1,N1-dimethylbenzene-1,4-disulfonamide]
- AC50 (Homo sapiens, HeLa, 2 h): ≥ 10 µM

SMILES: CC(C)(C)C(=O)N1CCN(c2ccccc2NS(=O)(=O)C2CCc3ccccc3C2)CC1 (stereo not drawn) [Compound A-583, N-{2-[4-(2,2-dimethylpropanoyl)piperazin-1-yl]phenyl}-1,2,3,4-tetrahydronaphthalene-2-sulfonamide]
- AC50 (Homo sapiens, HeLa, 2 h): ≥ 10 µM

SMILES: COCC1(C)CCN(c2ccccc2NS(=O)(=O)Cc2ccc(C)c(C)c2)CC1 [Compound A-642, 1-(3,4-dimethylphenyl)-N-{2-[4-(methoxymethyl)-4-methylpiperidin-1-yl]phenyl}methanesulfonamide]
- AC50 (Homo sapiens, HeLa, 2 h): ≤ 2 µM

SMILES: COCC1(C)CCN(c2ccccc2NS(=O)(=O)c2cccc(C3CC3)c2)CC1 [Compound A-643, 3-cyclopropyl-N-{2-[4-(methoxymethyl)-4-methylpiperidin-1-yl]phenyl}benzene-1-sulfonamide]
- AC50 (Homo sapiens, HeLa, 2 h): ≤ 2 µM

SMILES: COCCC1CCN(c2ccccc2NS(=O)(=O)c2ccc(S(=O)(=O)N(C)C)cc2)CC1 [Compound A-611, N4-{2-[4-(2-methoxyethyl)piperidin-1-yl]phenyl}-N1,N1-dimethylbenzene-1,4-disulfonamide]
- AC50 (Homo sapiens, HeLa, 2 h): ≤ 2 µM

SMILES: CN(C)S(=O)(=O)c1ccc(S(=O)(=O)Nc2ccccc2N2CCC3(CC2)OC(=O)c2cc(F)cnc23)cc1 [Compound A-473, N4-(2-{3-fluoro-5-oxo-5H-spiro[furo[3,4-b]pyridine-7,4′-piperidin]-1′-yl}phenyl)-N1,N1-dimethylbenzene-1,4-disulfonamide]
- AC50 (Homo sapiens, HeLa, 2 h): 2.01 to 8 µM

SMILES: CC(c1cccc(F)c1N1CCC(CN2C[C@@H](C)O[C@H](C)C2)CC1)S(=O)(=O)c1ccc(S(=O)(=O)N(C)C)cc1 (stereo partly drawn) [Compound A-859, 4-{1-[2-(4-{[(2R,6R)-2,6-dimethylmorpholin-4-yl]methyl}piperidin-1-yl)-3-fluorophenyl]ethanesulfonyl}-N,N-dimethylbenzene-1-sulfonamide]
- AC50 (Homo sapiens, HeLa, 2 h): ≤ 2 µM

SMILES: CC(C)(C)C(=O)N1CCN(c2ccccc2NS(=O)(=O)c2ccc(C3CC3(F)F)cc2)CC1 (stereo not drawn) [Compound A-528, 4-(2,2-difluorocyclopropyl)-N-{2-[4-(2,2-dimethylpropanoyl)piperazin-1-yl]phenyl}benzene-1-sulfonamide]
- AC50 (Homo sapiens, HeLa, 2 h): 2.01 to 8 µM

SMILES: CN(C)S(=O)(=O)c1ccc(S(=O)(=O)Nc2ccccc2[C@H]2CC[C@@H](c3ccc(Cl)cc3F)CC2)cc1 [Compound A-69, N1-(2-(4-(4-chloro-2-fluorophenyl)cyclohexyl)phenyl)-N4,N4-dimethylbenzene-1,4-disulfonamide]
- AC50 (Homo sapiens, HeLa, 2 h): 2.01 to 8 µM

SMILES: CN(C)S(=O)(=O)c1ccc(S(=O)(=O)Nc2nc(N3CCN(c4ccc(Cl)cc4F)CC3)n(C)n2)cc1 [Compound A-59, N1-(5-(4-(4-chloro-2-fluorophenyl)piperazin-1-yl)-1-methyl-1H-1,2,4-triazol-3-yl)-N4,N4-dimethylbenzene-1,4-disulfonamide]
- AC50 (Homo sapiens, HeLa, 2 h): ≥ 10 µM

SMILES: CN(C)S(=O)(=O)c1ccc(S(=O)(=O)Nc2ccccc2N2CCN(C(=O)C3CC3(C)C)CC2)cc1 (stereo not drawn) [Compound A-427, N4-{2-[4-(2,2-dimethylcyclopropanecarbonyl)piperazin-1-yl]phenyl}-N1,N1-dimethylbenzene-1,4-disulfonamide]
- AC50 (Homo sapiens, HeLa, 2 h): 2.01 to 8 µM

SMILES: CN(C)S(=O)(=O)c1ccc(S(=O)(=O)Nc2cccc(C(F)F)c2N2CCC3(CC2)COC(C)(C)C3)cc1 [Compound A-753, N4-[3-(difluoromethyl)-2-{3,3-dimethyl-2-oxa-8-azaspiro[4.5]decan-8-yl}phenyl]-N1,N1-dimethylbenzene-1,4-disulfonamide]
- AC50 (Homo sapiens, HeLa, 2 h): ≤ 2 µM

SMILES: CN(C)S(=O)(=O)c1ccc(S(=O)(=O)Nc2ccccc2N2CCCC23CCOC3)cc1 (stereo not drawn) [Compound A-508, N1,N1-dimethyl-N4-(2-{7-oxa-1-azaspiro[4.4]nonan-1-yl}phenyl)benzene-1,4-disulfonamide]
- AC50 (Homo sapiens, HeLa, 2 h): 2.01 to 8 µM

SMILES: C[C@@H](c1cccc(F)c1N1CCC(F)(F)CC1)S(=O)(=O)c1ccc(S(=N)(=O)N(C)C)cc1 (single isomer, unassigned) [Compound A-936]
- AC50 (Homo sapiens, HeLa, 2 h): ≤ 2 µM

SMILES: CN(C)S(=O)(=O)c1ccc(S(=O)(=O)Nc2ccccc2N2CCN(C(C)(C)C)CC2)cc1 [Compound A-337, N4-[2-(4-tert-butylpiperazin-1-yl)phenyl]-N1,N1-dimethylbenzene-1,4-disulfonamide]
- AC50 (Homo sapiens, HeLa, 2 h): 8.01 to 9.99 µM

SMILES: COCC1(C)CCN(c2ccccc2NS(=O)(=O)Cc2cccc(S(C)(=O)=O)c2)CC1 [Compound A-586, l-(3-methanesulfonylphenyl)-N-{2-[4-(methoxymethyl)-4-methylpiperidin-1-yl]phenyl}methanesulfonamide]
- AC50 (Homo sapiens, HeLa, 2 h): 8.01 to 9.99 µM

SMILES: CN(C)C1Cc2ccccc2C12CCN(c1ccccc1NS(=O)(=O)c1ccc(S(=O)(=O)N(C)C)cc1)CC2 (stereo not drawn) [Compound A-370, N4-{2-[2-(dimethylamino)-2,3-dihydrospiro[indene-1,4′-piperidin]-1′-yl]phenyl}-N1,N1-dimethylbenzene-1,4-disulfonamide]
- AC50 (Homo sapiens, HeLa, 2 h): ≤ 2 µM

SMILES: CS(=O)(=O)c1ccc(S(=O)(=O)Nc2ccccc2N2CCC3(CC2)CN(Cc2cccnc2)c2cc(F)ccc23)cc1 [Compound A-407, N-(2-{6-fluoro-1-[(pyridin-3-yl)methyl]-1,2-dihydrospiro[indole-3,4′-piperidin]-1′-yl}phenyl)-4-methanesulfonylbenzene-1-sulfonamide]
- AC50 (Homo sapiens, HeLa, 2 h): ≤ 2 µM

SMILES: COCC1(C)CCN(c2cc(F)ccc2NS(=O)(=O)c2ccc(S(=O)(=O)N(C)C)cc2)CC1 [Compound A-694, N4-{4-fluoro-2-[4-(methoxymethyl)-4-methylpiperidin-1-yl]phenyl}-N1,N1-dimethylbenzene-1,4-disulfonamide]
- AC50 (Homo sapiens, HeLa, 2 h): ≤ 2 µM

SMILES: C[C@@H]1CN(CC2CCN(c3c(F)cccc3NS(=O)(=O)c3ccc(S(=O)(=O)N4CCC4)cc3)CC2)C[C@H](C)O1 [Compound A-765, 4-(azetidine-1-sulfonyl)-N-[2-(4-{[(2R,6S)-2,6-dimethylmorpholin-4-yl]methyl}piperidin-1-yl)-3-fluorophenyl]benzene-1-sulfonamide]
- AC50 (Homo sapiens, HeLa, 2 h): ≤ 2 µM

SMILES: CN(C)S(=O)(=O)c1ccc(S(=O)(=O)Nc2ccccc2N2CCC(F)(CCO)CC2)cc1 [Compound A-722, N4-{2-[4-fluoro-4-(2-hydroxyethyl)piperidin-1-yl]phenyl}-N1,N1-dimethylbenzene-1,4-disulfonamide]
- AC50 (Homo sapiens, HeLa, 2 h): ≥ 10 µM

SMILES: CC(c1cccc(F)c1N1CCC(CN2C[C@H]3C[C@@H](C2)O3)CC1)S(=O)(=O)c1ccc(S(=O)(=O)N(C)C)cc1 (stereo partly drawn) [Compound A-837, 4-{1-[3-fluoro-2-(4-{[(1R,5S)-6-oxa-3-azabicyclo[3.1.1]heptan-3-yl]methyl}piperidin-1-yl)phenyl]ethanesulfonyl}-N,N-dimethylbenzene-1-sulfonamide]
- AC50 (Homo sapiens, HeLa, 2 h): ≤ 2 µM

SMILES: CC(c1cccc(F)c1N1CCC(COC(C)(C)C)CC1)S(=O)(=O)c1ccc(C(F)F)cc1 (single isomer, unassigned) [Compound A-977, 4-(tert-butoxymethyl)-1-(2-(1-((4-(difluoromethyl)phenyl)sulfonyl)ethyl)-6-fluorophenyl)piperidine]
- AC50: 2.01 to 8 µM

SMILES: O=S(=O)(Nc1cc(Cl)ccc1N1CC2(CCC2)OC2(CCC2)C1)c1ccc2c(c1)CCC2 [Compound A-396, N-(5-chloro-2-{5-oxa-11-azadispiro[3.1.3^6.3^4]dodecan-11-yl}phenyl)-2,3-dihydro-1H-indene-5-sulfonamide]
- AC50 (Homo sapiens, HeLa, 2 h): ≤ 2 µM

SMILES: CN(C)S(=O)(=O)c1ccc(S(=O)(=O)Nc2cccc(N3CCC(c4ccc(Cl)cc4F)CC3)c2)cc1 [Compound A-46, N4-{3-[4-(4-chloro-2-fluorophenyl)piperidin-1-yl]phenyl}-N1,N1-dimethylbenzene-1,4-disulfonamide]
- AC50 (Homo sapiens, HeLa, 2 h): ≥ 10 µM

SMILES: COc1ccc(S(=O)(=O)Nc2ccccc2N2CCC(Cc3ccc(F)cc3F)CC2)cc1 [Compound A-195, N-(2-{4-[(2,4-difluorophenyl)methyl]piperidin-1-yl}phenyl)-4-methoxybenzene-1-sulfonamide]
- AC50 (Homo sapiens, HeLa, 2 h): 2.01 to 8 µM

SMILES: CC1(C)CC2(CCN(c3ccccc3NS(=O)(=O)c3ccc4c(c3)CC(C)(C)O4)CC2)CO1 [Compound A-635, N-(2-{3,3-dimethyl-2-oxa-8-azaspiro[4.5]decan-8-yl}phenyl)-2,2-dimethyl-2,3-dihydro-1-benzofuran-5-sulfonamide]
- AC50 (Homo sapiens, HeLa, 2 h): 2.01 to 8 µM
